What was measured:
Assay in all cases: Test C greenhouse herbicide test, pre- and postemergence
Assay type in all cases: in vivo
[1] = test system: barnyardgrass (Echinochloa crus-galli)
From the text: (§1) Seeds of plant species selected from blackgrass (Alopecurus myosuroides), ryegrass, Italian (Italian ryegrass, Lolium multiflorum), wheat (winter wheat, Triticum aestivum), galium (catchweed bedstraw, Galium aparine), corn (Zea mays), large crabgrass, large (large crabgrass, Digitaria sanguinalis), foxtail, giant (giant foxtail, Setaria faberii), johnsongrass (Sorghum halepense), lambsquarters (Chenopodium album), morningglory (Ipomoea coccinea), nutsedge, yellow (yellow nutsedge, Cyperus esculentus), pigweed (Amaranthus retroflexus), ragweed (common ragweed, Ambrosia elatior), soybean (Glycine max), barnyardgrass (Echinochloa crus-galli), oilseed rape (Brassica napus), waterhemp (common waterhemp, Amaranthus rudis), and velvetleaf (Abutilon theophrasti) were planted into a blend of loam soil and sand and treated preemergence with test chemicals formulated in a non-phytotoxic solvent mixture which included a surfactant.
(§2) At the same time, plants selected from these crop and weed species and also chickweed (common chickweed, Stellaria media), kochia (Kochia scoparia), and oat, wild (wild oat, Avena fatua), were planted in pots containing Redi-Earth® planting medium (Scotts Company, 14111 Scottslawn Road, Marysville, Ohio 43041) comprising spaghnum peat moss, vermiculite, wetting agent and starter nutrients and treated with postemergence applications of test chemicals formulated in the same manner. Plants ranged in height from 2 to 18 cm (1- to 4-leaf stage) for postemergence treatments. Treated plants and controls were maintained in a greenhouse for 13 to 15 d, after which time all species were compared to controls and visually evaluated. Plant response ratings, summarized in Table C, are based on a scale of 0 to 100 where 0 is no effect and 100 is complete control. A dash (-) response means no test result.

[2] = test system: blackgrass (Alopecurus myosuroides)
From the text: as §1, §2

[3] = test system: corn (Zea mays)
From the text: as §1, §2

[4] = test system: crabgrass, large (large crabgrass, Digitaria sanguinalis)
From the text: as §1, §2

[5] = test system: foxtail, giant (giant foxtail, Setaria faberii)
From the text: as §1, §2

[6] = test system: galium (catchweed bedstraw, Galium aparine)
From the text: as §1, §2

[7] = test system: lambsquarters (Chenopodium album)
From the text: as §1, §2

[8] = test system: morningglory (Ipomoea coccinea)
From the text: as §1, §2

[9] = test system: nutsedge, yellow (yellow nutsedge, Cyperus esculentus)
From the text: as §1, §2

[10] = test system: oilseed rape (Brassica napus)
From the text: as §1, §2

[11] = test system: ragweed (common ragweed, Ambrosia elatior)
From the text: as §1, §2

[12] = test system: ryegrass, Italian (Italian ryegrass, Lolium multiflorum)
From the text: as §1, §2

[13] = test system: soybean (Glycine max)
From the text: as §1, §2

[14] = test system: velvetleaf (Abutilon theophrasti)
From the text: as §1, §2

[15] = test system: waterhemp (common waterhemp, Amaranthus rudis)
From the text: as §1, §2

[16] = Postemergence, 31 g ai/ha, 0 to 100 scale (0 no effect, 100 complete control)
[17] = Postemergence, 125 g ai/ha, scale 0 to 100, 0 is no effect, 100 is complete control
[18] = Postemergence, 250 g ai/ha, scale 0 to 100, 0 no effect, 100 complete control, 13 to 15 d
[19] = Preemergence, 31 g ai/ha, scale 0 to 100, 0 is no effect, 100 is complete control
[20] = Preemergence, 62 g ai/ha, scale 0 to 100, 0 is no effect, 100 is complete control
[21] = Preemergence, 125 g ai/ha, scale 0 to 100, 0 is no effect, 100 is complete control
[22] = Preemergence, 250 g ai/ha, scale 0 to 100, 0 no effect, 100 complete control
[23] = postemergence, 62 g ai/ha, scale 0 to 100, 0 no effect, 100 complete control

## Cc1cc(C)c2sc(C)c(-c3c(O)c(C)nn(C)c3=O)c2c1 [Compound 2, 5-hydroxy-2,6-dimethyl-4-(2,5,7-trimethylbenzo[b]thien-3-yl)-3(2H)-pyridazinone]
[1]; [16]
  Barnyardgrass plant response rating: 10
[1]; [17]
  Plant response rating, Barnyardgrass: 15
[1]; [18]
  Plant response rating, Barnyardgrass: 20
[1]; [19]
  Plant response rating, Barnyardgrass: 35
[1]; [20]
  Plant response rating, Barnyardgrass: 70
[1]; [21]
  Plant response rating, Barnyardgrass: 95
[1]; [22]
  Barnyardgrass plant response rating: 98
[1]; [23]
  Barnyardgrass plant response rating: 10
[2]; [16]
  Blackgrass plant response rating: 45
[2]; [17]
  Plant response rating, Blackgrass: 85
[2]; [18]
  Plant response rating, Blackgrass: 80
[2]; [19]
  Plant response rating, Blackgrass: 85
[2]; [20]
  Plant response rating, Blackgrass: 90
[2]; [21]
  Plant response rating, Blackgrass: 95
[2]; [22]
  Blackgrass plant response rating: 95
[2]; [23]
  Blackgrass plant response rating: 65
[3]; [16]
  Corn plant response rating: 0
[3]; [17]
  Plant response rating, Corn: 5
[3]; [18]
  Plant response rating, Corn: 10
[3]; [19]
  Plant response rating, Corn: 0
[3]; [20]
  Plant response rating, Corn: 0
[3]; [21]
  Plant response rating, Corn: 0
[3]; [22]
  Corn plant response rating: 10
[3]; [23]
  Corn plant response rating: 5
[4]; [16]
  Crabgrass, Large plant response rating: 10
[4]; [17]
  Plant response rating, Crabgrass, Large: 15
[4]; [18]
  Plant response rating, Crabgrass, Large: 10
[4]; [19]
  Plant response rating, Crabgrass, Large: 55
[4]; [20]
  Plant response rating, Crabgrass, Large: 55
[4]; [21]
  Plant response rating, Crabgrass, Large: 98
[4]; [22]
  Crabgrass, Large plant response rating: 95
[4]; [23]
  Crabgrass, Large plant response rating: 15
[5]; [16]
  Foxtail, Giant plant response rating: 20
[5]; [17]
  Plant response rating, Foxtail, Giant: 90
[5]; [18]
  Plant response rating, Foxtail, Giant: 95
[5]; [19]
  Plant response rating, Foxtail, Giant: 80
[5]; [20]
  Plant response rating, Foxtail, Giant: 100
[5]; [21]
  Plant response rating, Foxtail, Giant: 98
[5]; [22]
  Foxtail, Giant plant response rating: 100
[5]; [23]
  Foxtail, Giant plant response rating: 65
[6]; [16]
  Galium plant response rating: 95
[6]; [17]
  Plant response rating, Galium: 98
[6]; [18]
  Plant response rating, Galium: 98
[6]; [19]
  Plant response rating, Galium: 95
[6]; [20]
  Plant response rating, Galium: 100
[6]; [21]
  Plant response rating, Galium: 100
[6]; [22]
  Galium plant response rating: 100
[6]; [23]
  Galium plant response rating: 95
[7]; [16]
  Lambsquarters plant response rating: 85
[7]; [17]
  Plant response rating, Lambsquarters: 98
[7]; [18]
  Plant response rating, Lambsquarters: 100
[7]; [19]
  Plant response rating, Lambsquarters: 100
[7]; [20]
  Plant response rating, Lambsquarters: 100
[7]; [21]
  Plant response rating, Lambsquarters: 100
[7]; [22]
  Lambsquarters plant response rating: 100
[7]; [23]
  Lambsquarters plant response rating: 85
[8]; [16]
  Morningglory plant response rating: 100
[8]; [17]
  Plant response rating, Morningglory: 100
[8]; [18]
  Plant response rating, Morningglory: 100
[8]; [19]
  Plant response rating, Morningglory: 98
[8]; [20]
  Plant response rating, Morningglory: 100
[8]; [21]
  Plant response rating, Morningglory: 98
[8]; [22]
  Morningglory plant response rating: 100
[8]; [23]
  Morningglory plant response rating: 100
[9]; [16]
  Nutsedge, Yellow plant response rating: 80
[9]; [17]
  Plant response rating, Nutsedge, Yellow: 98
[9]; [18]
  Plant response rating, Nutsedge, Yellow: 98
[9]; [19]
  Plant response rating, Nutsedge, Yellow: 30
[9]; [20]
  Plant response rating, Nutsedge, Yellow: 45
[9]; [21]
  Plant response rating, Nutsedge, Yellow: 70
[9]; [22]
  Nutsedge, Yellow plant response rating: 95
[9]; [23]
  Nutsedge, Yellow plant response rating: 95
[10]; [16]
  Oilseed Rape plant response rating: 65
[10]; [17]
  Plant response rating, Oilseed Rape: 70
[10]; [18]
  Plant response rating, Oilseed Rape: 75
[10]; [19]
  Plant response rating, Oilseed Rape: 0
[10]; [20]
  Plant response rating, Oilseed Rape: 20
[10]; [21]
  Plant response rating, Oilseed Rape: 65
[10]; [22]
  Oilseed Rape plant response rating: 65
[10]; [23]
  Oilseed Rape plant response rating: 70
[11]; [16]
  Ragweed plant response rating: 80
[11]; [17]
  Plant response rating, Ragweed: 95
[11]; [18]
  Plant response rating, Ragweed: 98
[11]; [19]
  Plant response rating, Ragweed: 65
[11]; [20]
  Plant response rating, Ragweed: 100
[11]; [21]
  Plant response rating, Ragweed: 100
[11]; [22]
  Ragweed plant response rating: 98
[11]; [23]
  Ragweed plant response rating: 80
[12]; [16]
  Ryegrass, Italian plant response rating: 60
[12]; [17]
  Plant response rating, Ryegrass, Italian: 85
[12]; [18]
  Plant response rating, Ryegrass, Italian: 90
[12]; [19]
  Plant response rating, Ryegrass, Italian: 95
[12]; [20]
  Plant response rating, Ryegrass, Italian: 98
[12]; [21]
  Plant response rating, Ryegrass, Italian: 98
[12]; [22]
  Ryegrass, Italian plant response rating: 98
[12]; [23]
  Ryegrass, Italian plant response rating: 75
[13]; [16]
  Soybean plant response rating: 0
[13]; [17]
  Plant response rating, Soybean: 50
[13]; [18]
  Plant response rating, Soybean: 5
[13]; [20]
  Plant response rating, Soybean: 0
[13]; [21]
  Plant response rating, Soybean: 0
[13]; [22]
  Soybean plant response rating: 0
[13]; [23]
  Soybean plant response rating: 0
[14]; [16]
  Velvetleaf plant response rating: 100
[14]; [17]
  Plant response rating, Velvetleaf: 100
[14]; [18]
  Plant response rating, Velvetleaf: 100
[14]; [20]
  Plant response rating, Velvetleaf: 95
[14]; [21]
  Plant response rating, Velvetleaf: 100
[14]; [22]
  Velvetleaf plant response rating: 100
[14]; [23]
  Velvetleaf plant response rating: 100
[15]; [16]
  Waterhemp plant response rating: 65
[15]; [17]
  Plant response rating, Waterhemp: 85
[15]; [18]
  Plant response rating, Waterhemp: 100
[15]; [20]
  Plant response rating, Waterhemp: 100
[15]; [21]
  Plant response rating, Waterhemp: 100
[15]; [22]
  Waterhemp plant response rating: 100
[15]; [23]
  Waterhemp plant response rating: 65

## CC(=O)Oc1c(Cl)nn(C)c(=O)c1-c1c(C)sc2ccc(Cl)cc12 [Compound 116]
[1]; [19]
  Plant response rating, Barnyardgrass: 5
[1]; [20]
  Plant response rating, Barnyardgrass: 30
[1]; [21]
  Plant response rating, Barnyardgrass: 70
[1]; [22]
  Barnyardgrass plant response rating: 95
[2]; [19]
  Plant response rating, Blackgrass: 0
[2]; [20]
  Plant response rating, Blackgrass: 5
[2]; [21]
  Plant response rating, Blackgrass: 30
[2]; [22]
  Blackgrass plant response rating: 35
[3]; [19]
  Plant response rating, Corn: 0
[3]; [20]
  Plant response rating, Corn: 0
[3]; [21]
  Plant response rating, Corn: 60
[3]; [22]
  Corn plant response rating: 25
[4]; [19]
  Plant response rating, Crabgrass, Large: 0
[4]; [20]
  Plant response rating, Crabgrass, Large: 20
[4]; [21]
  Plant response rating, Crabgrass, Large: 50
[4]; [22]
  Crabgrass, Large plant response rating: 90
[6]; [19]
  Plant response rating, Galium: 60
[6]; [20]
  Plant response rating, Galium: 85
[6]; [21]
  Plant response rating, Galium: 100
[6]; [22]
  Galium plant response rating: 100
[7]; [19]
  Plant response rating, Lambsquarters: 65
[7]; [20]
  Plant response rating, Lambsquarters: 98
[7]; [21]
  Plant response rating, Lambsquarters: 90
[7]; [22]
  Lambsquarters plant response rating: 95
[8]; [19]
  Plant response rating, Morningglory: 55
[8]; [20]
  Plant response rating, Morningglory: 80
[8]; [21]
  Plant response rating, Morningglory: 85
[8]; [22]
  Morningglory plant response rating: 98
[9]; [19]
  Plant response rating, Nutsedge, Yellow: 0
[9]; [20]
  Plant response rating, Nutsedge, Yellow: 35
[9]; [21]
  Plant response rating, Nutsedge, Yellow: 85
[9]; [22]
  Nutsedge, Yellow plant response rating: 95
[10]; [19]
  Plant response rating, Oilseed Rape: 85
[10]; [20]
  Plant response rating, Oilseed Rape: 80
[10]; [21]
  Plant response rating, Oilseed Rape: 95
[10]; [22]
  Oilseed Rape plant response rating: 100
[11]; [19]
  Plant response rating, Ragweed: 85
[11]; [20]
  Plant response rating, Ragweed: 90
[11]; [21]
  Plant response rating, Ragweed: 95
[11]; [22]
  Ragweed plant response rating: 100
[12]; [19]
  Plant response rating, Ryegrass, Italian: 5
[12]; [20]
  Plant response rating, Ryegrass, Italian: 30
[12]; [21]
  Plant response rating, Ryegrass, Italian: 70
[12]; [22]
  Ryegrass, Italian plant response rating: 90
[13]; [20]
  Plant response rating, Soybean: 0
[13]; [21]
  Plant response rating, Soybean: 0
[13]; [22]
  Soybean plant response rating: 5
[14]; [19]
  Plant response rating, Velvetleaf: 70
[14]; [20]
  Plant response rating, Velvetleaf: 85
[14]; [21]
  Plant response rating, Velvetleaf: 100
[14]; [22]
  Velvetleaf plant response rating: 100
[15]; [19]
  Plant response rating, Waterhemp: 55
[15]; [20]
  Plant response rating, Waterhemp: 70
[15]; [21]
  Plant response rating, Waterhemp: 80
[15]; [22]
  Waterhemp plant response rating: 100

Source: patent publication US10597388B2, “Pyridazinone herbicides” (FMC CORPORATION, priority 2014, dated 2020)
